Results as given in publication PMC12803606, “A metabolic comparison of GIPR agonism versus GIPR antagonism in male mice” (Diabetes, Obesity & Metabolism, 2025).

Tests used:
[1] = human study, 6‐day GIP infusion; cited from earlier work
From the text: We also investigated the effects of GIPR agonism and antagonism on liver triglyceride content.

[2] = system: osteoblastic and osteoclastic activity; conditions: cited from earlier work
human adipocytes = conditions: acute administration; ex vivo and in vivo glucose uptake; cited from earlier work
From the text: Another important focus of this study was the effect of GIP108 and NN‐GIPR‐Ant administration on insulin sensitivity.

glucagon secretion = conditions: cited from earlier work
From the text: We next investigated the effects of GIP108 and NN‐GIPR‐Ant administration on insulin sensitivity.

CTX = conditions: rodent models and humans; cited from earlier work
GIPR = assay: Intraperitoneal glucose tolerance test in lean mice, hGIP with NN-GIPR-Ant (in vivo antagonism); set-up: species or system mouse; conditions: n = 8, hGIP 50 nmol/kg with glucose 2 g/kg at t = 0
Method: (A–C) Amino acid sequences of hGIP (A), GIP108 (B) and NN‐GIPR‐Ant (C). AIB = 2‐aminoisobutyric acid. Side chains denote fatty acid tails. (D–F) cAMP measurements in AD293 cells transiently transfected with the mGIPR (D), mGLP‐1R (E) and mGCGR (F) and stimulated for 30 min with the indicated peptide (n = 3), with three parameter curve fits plotted. (G, H) 60‐min intraperitoneal glucose tolerance test in lean mice (n = 8). (G) Plasma glucose over time with glucose ± hGIP injected at t = 0 and NN‐GIPR‐Ant injected at t = −120 min, analysed using two‐way ANOVA with time and subgroup as co‐variables. (H) Glucose AUC derived from the time course in (H), analysed using a one‐way ANOVA. Dunnett's test was used to correct for multiple comparisons against vehicle control. […] The colour of the star denotes which group is statistically different compared to vehicle control.
All animal procedures were approved by the British Home Office under the UK Animals (Scientific Procedures) Act 1986, and Amendment Regulations, 2012 and approved by the Imperial College London Animal Welfare and Ethical Review Body. Wild type male C57BL/6J mice (8-14 weeks; Charles River, UK) were used. […]
Mice were fasted at 08:00. […] Total glucose AUC was calculated by trapezoidal rule using y=0 as baseline. Glucose readings were measured in mmol/L using the same ISO15197-compliant GlucoRx Nexus (GlucoRx, Guildford, UK) glucometer.

mouse GIPR = assay: HTRF cAMP assay, AD293 cells transiently transfected with mGIPR; assay type: cell-based; conditions: 30 min, n = 3
From the text: For the antagonist we used a long‐acting GIPR antagonist, named throughout as NN‐GIPR‐Ant, previously characterised by Yang et al.[7] We first confirmed the actions of NN‐GIPR‐Ant as a mouse GIPR antagonist, performing in vitro cAMP assays in AD293 cells, a human embryonic kidney cell line commonly used in G‐protein coupled receptor research due to rapid division and ease of receptor transfection.
(A–C) Amino acid sequences of hGIP (A), GIP108 (B) and NN‐GIPR‐Ant (C). AIB = 2‐aminoisobutyric acid. Side chains denote fatty acid tails. (D–F) cAMP measurements in AD293 cells transiently transfected with the mGIPR (D), mGLP‐1R (E) and mGCGR (F) and stimulated for 30 min with the indicated peptide (n = 3), with three parameter curve fits plotted. (G, H) 60‐min intraperitoneal glucose tolerance test in lean mice (n = 8). (G) Plasma glucose over time with glucose ± hGIP injected at t = 0 and NN‐GIPR‐Ant injected at t = −120 min, analysed using two‐way ANOVA with time and subgroup as co‐variables. (H) Glucose AUC derived from the time course in (H), analysed using a one‐way ANOVA. Dunnett's test was used to correct for multiple comparisons against vehicle control. […] The colour of the star denotes which group is statistically different compared to vehicle control. […]

humans = conditions: ref 12 (as cited in b3; abstract prints none); cited from earlier work

Substance: glucose‐dependent insulinotropic polypeptide [GIP]
- liver fat [1]: increased liver fat
- osteoblastic and osteoclastic activity [2]: increases osteoblastic and suppresses osteoclastic activity
- insulin sensitising effect in human adipocytes (human adipocytes): increasing adipocyte glucose uptake both ex vivo and in vivo
- glucagon secretion in hypoglycaemia (glucagon secretion): potently stimulate glucagon secretion in hypoglycaemia
- CTX levels, acute (CTX): acutely lowers CTX levels

Substance: hGIP: hGIP(1‐42); sequence in Figure 1A (YAEGTFISDYSIAMDKIHQQDFVNWLLAQKGKKNDWKHNITQ; Gastric inhibitory polypeptide; UniProt P09681 52-93, looked up)
- improvement of glucose tolerance by hGIP (GIPR): improve glucose tolerance
- stimulation of cAMP at mouse GIPR (mouse GIPR): ability to stimulate cAMP

Substance: maridebart cafraglutide: Amgen's high‐affinity GIPR antagonist antibody with GLP‐1R agonist conjugate arms
- weight loss effects in humans (humans): significant weight loss effects in humans
